Broadly, the EC50 is the concentration giving half of the maximal effect. Read a low EC50 as greater potency.

For 1 compound, EC50 results are on record in PMC4465922 (Nature chemical biology, 2015).

This test deals with T1, α2C-adrenergic receptor (α2C-AR) (Homo sapiens, UniProt P18825).
T1 sequence (P18825 1-462): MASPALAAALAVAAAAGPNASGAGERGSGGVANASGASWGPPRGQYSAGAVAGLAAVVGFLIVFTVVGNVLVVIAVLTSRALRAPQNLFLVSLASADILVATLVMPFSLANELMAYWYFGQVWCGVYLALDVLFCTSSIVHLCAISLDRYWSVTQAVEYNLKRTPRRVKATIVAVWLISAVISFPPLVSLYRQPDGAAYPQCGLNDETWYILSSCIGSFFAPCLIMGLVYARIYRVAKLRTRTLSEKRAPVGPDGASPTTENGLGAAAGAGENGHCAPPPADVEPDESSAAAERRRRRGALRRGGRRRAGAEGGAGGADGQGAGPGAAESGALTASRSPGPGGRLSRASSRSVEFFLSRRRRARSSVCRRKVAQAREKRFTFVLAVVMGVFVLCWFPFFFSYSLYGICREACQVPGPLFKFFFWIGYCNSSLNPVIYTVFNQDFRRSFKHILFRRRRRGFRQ
Put plainly: [3H]NE competition radioligand binding on HEK293T membranes. Format: cell-based.

Compound `NC[C@H](O)c1ccc(O)c(O)c1` [NE, L-(–)-norepinephrine] displayed an EC50 of 1.2 ± 0.4 nM.
